For orientation: Ki means a dissociation constant, usually derived from enzyme kinetics or from competition with a known ligand. What is called IC90 is the concentration at which the effect reaches the 90% level.

Like-named read-outs stand apart in the source and are kept apart here.

Data set [1] concerns the target HCV protease mutant A156T (Hepatitis C virus genotype 1b, UniProt Q9WMX2, A1182T). The settings on record: biochemical assays, read-out: Comparative Ki Values, A156T; cited from earlier work.
Data set [2] deals with HCV protease mutant D168A (Hepatitis C virus genotype 1b, UniProt Q9WMX2, D1194A). The conditions noted are these: biochemical assays, cited from earlier work; for IC50: literature, read-out: Comparative IC50 Values, D168A; for Ki: read-out: Comparative Ki Values, D168A.
Data set [3] deals with T1, wild type HCV NS3/4A 1b protease enzyme (Hepatitis C virus genotype 1b, UniProt P26663).
T1 construct: 10× stocks of NS3/4A protease enzyme from Bioenza (Mountain View, Calif.); purchased Bioenza (Mountain View, Calif.)
Description: biochemical. The data set is classed as biochemical. The conditions noted are these: read-out: Inhibition, WT; WT enzyme, FRET assay.

The target of data set [4] is T2, A156T mutant of the HCV NS3/4A 1b protease enzyme (Hepatitis C virus genotype 1b, UniProt P26663, A1182T).
T2 construct: 10× stocks of NS3/4A protease enzyme from Bioenza (Mountain View, Calif.); purchased Bioenza (Mountain View, Calif.)
Nature of the data set: HCV Protease FRET Assay (IC50), A156T mutant. It counts as biochemical. The settings on record: read-out: Inhibition, HCV A156T; A156T enzyme, FRET assay.

Data set [5] deals with T3, D168A mutant of the HCV NS3/4A 1b protease enzyme (Hepatitis C virus genotype 1b, UniProt P26663, D1194A).
T3 construct: 10× stocks of NS3/4A protease enzyme from Bioenza (Mountain View, Calif.); purchased Bioenza (Mountain View, Calif.)
Description: HCV Protease FRET Assay (IC50), D168A mutant. It counts as biochemical. The settings on record: read-out: Inhibition, HCV D168A; D168A enzyme, FRET assay.

Data set [6] deals with HCV NS3/4A protease (UniProt Q9WMX2). Nature of the data set: Method B: HCV Protease Assay using FRET Methodology. Further details: species or system Hepatitis C virus. The conditions noted are these: read-out: Inhibition, Biochemical; Enzyme/Assay: Biochemical. From the text:
Method B: HCV Protease Assay using FRET Methodology
A quantitative, fluorescence resonance energy transfer (FRET)-based methodology was employed to identify HCV NS3/4A protease inhibitors. The assay employed a synthetic FRET peptide, derived from the HCV NS5A/5B cleavage site, with the HCV protease to evaluate the activity of compounds against the protease by monitoring the cleavage activity of the complex. A synthetic peptide which encompasses the NS5A-5B junction (NH2-EDVVCCSMSYK-COOH) was labeled with Dabcyl and Edans at N- and C-termini, respectively (Invitrogen, Carlsbad, Calif.). Fluorescence measurement was used to estimate the IC50 value of the test compound. […] Upon cleavage of the FRET peptide by HCV NS3/4A proteinase complex (100 ng/mL), the fluorescence is recovered and can be continuously monitored at excitation/emission=340/490 nm.

The subject of data set [7] is HCV RNA replicon in cell line ET (luc-ubi-neo/ET), human Huh7 hepatoma. Description: Method A: HCV RNA replicon antiviral assay (luciferase, ET cell line). The settings on record: Hepatitis C virus, Huh-7. It counts as cell-based, Hepatitis C virus. The method in brief: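 ET replicon cells (Huh7 carrying luciferase-reporter HCV replicon) plated at 5×10^3 cells/well and exposed 72 hr to six 3-fold drug concentrations in DMEM/5% FBS. Replicon luciferase gave EC50/EC90; CytoTox-1 cell counts gave IC50 (viability); […]. Interferon alpha-2b served as positive control.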
(Replicon systems follow genome replication, usually without infectious particles.)

The subject of data set [8] is cell line ET (luc-ubi-neo/ET), human Huh7 hepatoma cell line. Description: Method A: cytotoxicity in ET replicon cells (CytoTox-1). The data set is classed as cell-based. The conditions noted are these: concentration decreasing cell viability by 50%, 72 hr. In a few lines: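 ET cells (Huh7 carrying luciferase HCV replicon), 5×10^3 cells/well, given six 3-fold compound concentrations in DMEM with 5% FBS. After 72 hr, while subconfluent, cell number was measured with CytoTox-1 reagent. Interferon alpha-2b served as positive control.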

The target in data set [9] is T4, HCV R155K (NS3/4A 1b protease) (Hepatitis C virus genotype 1b, UniProt P26663, R1181K).
T4 construct: 10× stocks of NS3/4A protease enzyme from Bioenza (Mountain View, Calif.); purchased Bioenza (Mountain View, Calif.)
Description: HCV Protease FRET Assay (IC50), R155K mutant. It counts as biochemical. The conditions noted are these: R155K enzyme, read-out: Inhibition, HCV R155K. On the procedure: HCV Protease FRET Assay for Wild Type and Mutated NS3/4A 1b Enzymes (IC50)
The protocol is a modified FRET-based assay (v—02) from In Vitro Resistance Studies of HCV Serine Protease Inhibitors, 2004, JBC, vol. 279, No. 17, pp 17508-17514.
10× stocks of NS3/4A protease enzyme from Bioenza (Mountain View, Calif.) and 1.13× 5-FAM/QXL™ 520 FRET peptide substrate from Anaspec (San Jose, Calif.) were prepared in 50 mM HEPES, pH 7.8, 100 mM NaCl, 5 mM DTT and 20% glycerol. 5 μL of each enzyme were pre-incubated in a Corning (#3573) 384-well, black, non-treated microtiter plate (Corning, N.Y.) for 30 min at 25° C. with a 0.5 μL volume of 50% DMSO and serially diluted compounds prepared in 50% DMSO. Protease reactions were started with the addition of 45 μL of the FRET substrate and monitored for 120 minutes at λex487/λem514 through Quad^4 monochromoters in a Synergy^4 plate reader from BioTek (Winooski, Vt.). At the conclusion of each assay, progress curves from each well were examined for linear reaction kinetics and fit statistics (R^2, absolute sum of squares). Initial velocity (0 minutes to 30+ minutes) from each reaction was determined from the slope of a plot of relative fluorescence units vs time (minutes) and then plotted against inhibitor concentration to estimate IC50 from log[Inhibitor] vs Response, Variable Slope model in GraphPad Prism from GraphPad Software (San Diego, Calif.).
The compound numbers correspond to the compound numbers in Table 3. […] ;

Data set [10] addresses T1, wild type HCV NS3/4A 1b protease enzyme. Nature of the data set: HCV Protease FRET Assay (IC50_APP), wild type. The data set is classed as biochemical. The conditions noted are these: read-out: IC50_APP, WT; apparent IC50, wild type NS3/4A 1b.
Data set [11] deals with T2, A156T mutant of the HCV NS3/4A 1b protease enzyme. Nature of the data set: HCV Protease FRET Assay (IC50_APP), A156T mutant. The data set is classed as biochemical. The conditions noted are these: apparent IC50, A156T mutant; read-out: IC50_APP, HCV A156T.
In data set [12] the target is T3, D168A mutant of the HCV NS3/4A 1b protease enzyme. Description: HCV Protease FRET Assay (IC50_APP), D168A mutant. The data set is classed as biochemical. The conditions noted are these: apparent IC50, D168A mutant; read-out: IC50_APP, HCV D168A.
Data set [13] concerns the target T5, R155K mutant of the HCV NS3/4A 1b protease enzyme (Hepatitis C virus genotype 1b, UniProt P26663, R1181K).
T5 construct: 10× stocks of NS3/4A protease enzyme from Bioenza (Mountain View, Calif.); purchased Bioenza (Mountain View, Calif.)
Description: HCV Protease FRET Assay (IC50_APP), R155K mutant. The data set is classed as biochemical. The settings on record: apparent IC50, R155K mutant; read-out: IC50_APP, HCV R155K.

The target of data set [14] is T6, NS3 protease self-cleavage in Huh-7-Luc-Neo-ET wild-type replicon cells (Hepatitis C virus genotype 1b, UniProt Q9WMX2, E1202G/T1280I).
T6 construct: host or cells: Huh-7-Luc-Neo-ET (human Huh7 hepatoma cells carrying the replicon)
Description: Inhibition of protease self cleavage after compound removal, wild-type replicon cells. The data set is classed as cell-based. The settings on record: 16 hours incubation, in as little as 4 hours after removal. On the procedure:
Inhibition of Protease Self Cleavage
Huh-7-Luc-Neo-ET cells were plated in Replicon Assay Medium (RPMI supplemented with 5% FBS, 1× non-essential amino acids and pen/strep) at a density of 1×10^5 cells/well in 12 well plates. Eight hours later the media was removed and replaced with 1 ml media containing test compound (5 wells per compound) and 0.02% DMSO and the cells were returned to the incubator overnight. Sixteen hours later 1 well from each compound and 1 untreated well were washed with PBS, then lysed and scraped into 30 ul of Cell Extraction Buffer (Biosource, Camarillo, Calif.) plus Complete Protease Inhibitor (Roche, Indianapolis, Ind.). The remaining wells were rinsed 2× with PBS then fed with Replicon Media and returned to the incubator. […]
Cell lysates were separated by SDS-Page (4-20%) and transferred to Immobilon-P PVDF membrane (Millipore Corporation, Mass.) and blotted with polyclonal anti NS3 antibody (Bioenza, Calif.). Blots were scanned on an Odyssey infrared scanner from Licor and the FL band and cleavage products were quantified separately using the Licor software provided with the scanner. The cleavage product was calculated as a percentage of the total NS3 in each sample and then normalized to the DMSO control so that the DMSO control reflects 100% activity.

Where [15] appears, read: assay described in Example 22, read-out: Replicon (IC50).

`COc1ccc2c(O[C@@H]3C[C@H]4C(=O)N[C@]5(C(=O)O)C[C@H]5/C=C\CCCCC[C@H](NC(=O)OC5CCCC5)C(=O)N4C3)cc(-c3csc(NC(C)C)n3)nc2c1` [BILN 2061]: the Ki in data set [1] is above 1200 nM. For the same molecule, in [2], the IC50 is 1860 nM and the Ki is above 1200 nM.
Take `C=C[C@@H]1C[C@]1(NC(=O)[C@@H]1C[C@@H](Oc2cc(-c3ccccc3)nc3cc(OC)ccc23)CN1C(=O)[C@H](CNC(=O)/C=C/C)NC(=O)OC(C)(C)C)C(=O)NS(=O)(=O)c1ccccc1` [Compound I-2, N-[(1,1-dimethylethoxy)carbonyl]-3-[(2-butenoyl)amino]-L-alanyl-(4R)-4-[(7-methoxy-2-phenyl-4-quinolinyl)oxy]-L-prolyl-1-amino-2-ethenyl-N-(phenylsulfonyl)-(1R,2S)-cyclopropanecarboxamide]: the IC50 in [3] was below 10 nM; in data set [4], 10 to 100 nM; in data set [5] it was 1000 to 10000 nM; in data set [6], 100 to 1000 nM; in [7] (Replicon, assay of Example 22, 72 hr, read-out: Inhibition, Replicon), 100 to 1000 nM. In addition, in data set [8], the “Inhibition, Cytotoxicity” value was “E (IC50≧10,000 nM)”.
`C=CC(=O)NC[C@H](NC(=O)OC(C)(C)C)C(=O)N1C[C@H](Oc2nccc3ccc(Br)cc23)C[C@H]1C(=O)N[C@]1(C(=O)NS(=O)(=O)C2CC2)C[C@H]1C=C` [Compound I-73, tert-butyl-(S)-3-acrylamido-1-((2S,4R)-4-(7-bromoisoquinolin-1-yloxy)-2-((1R,2S)-1-(cyclopropylsulfonylcarbamoyl)-2-vinylcyclopropylcarbamoyl)pyrrolidin-1-yl)-1-oxopropan-2-ylcarbamate]: the IC50 is below 10 nM in [9]; 10 to 100 nM in data set [7] (setting [15]); below 10 nM in data set [10]; 10 to 100 nM in data set [11]; 100 to 1000 nM in data set [12]; 10 to 100 nM in data set [13]. This molecule returned an IC90 in data set [7] (assay described in Example 22) of 100 to 1000 nM.
Turning to `C=CC(=O)N[C@H](C)C(=O)N1C[C@H](Oc2nccc3ccc(Br)cc23)C[C@H]1C(=O)N[C@]1(C(=O)NS(=O)(=O)C2CC2)C[C@H]1C=C` [Compound I-74, (2S,4R)-1-((R)-2-acrylamidopropanoyl)-4-(7-bromoisoquinolin-1-yloxy)-N-((1R,2S)-1-(cyclopropylsulfonylcarbamoyl)-2-vinylcyclopropyl)pyrrolidine-2-carboxamide], the IC50 in [9] was below 10 nM; in [7] (setting [15]), 10 to 100 nM; in data set [10], below 10 nM; in data set [11], 10 to 100 nM; in data set [12], 100 to 1000 nM; in [13], 10 to 100 nM. In [7] (assay described in Example 22), this molecule displayed an IC90 of 10 to 100 nM.
Take `C=C[C@@H]1C[C@]1(NC(=O)[C@@H]1C[C@@H](Oc2nccc3ccc(Br)cc23)CN1C(=O)[C@H](CCC(=O)C=C(C)C)NC(=O)OC(C)(C)C)C(=O)NS(=O)(=O)C1CC1` [Compound I-75, tert-butyl-(S)-1-((2S,4R)-4-(7-bromoisoquinolin-1-yloxy)-2-((1R,2S)-1-(cyclopropylsulfonylcarbamoyl)-2-vinylcyclopropylcarbamoyl)pyrrolidin-1-yl)-7-methyl-1,5-dioxooct-6-en-2-ylcarbamate]: the IC50 in data set [9] was 10 to 100 nM; in [7] (setting [15]), below 10 nM; in data set [10] it was below 10 nM; in [11] it was 100 to 1000 nM; in data set [12], 1000 to 10000 nM; in [13], 100 to 1000 nM. The molecule also showed an IC90 in data set [7] (assay described in Example 22) of 10 to 100 nM.
Regarding `CCC[C@H](NC(=O)[C@@H]1[C@H]2CCC[C@H]2CN1C(=O)[C@@H](NC(=O)[C@@H](NC(=O)c1cnccn1)C1CCCCC1)C(C)(C)C)C(=O)C(=O)NC1CC1` [VX-950], the “Return of NS3 self-cleavage activity after drug removal” value in data set [14] is on record as “virtually complete return of activity”. The Ki in data set [1] is 9900 nM; in [2], 150 nM. Further, in [2], the IC50 is 193 nM.

The record behind these values is patent publication US8309685B2 (Celgene Avilomics Research, Inc., priority 2007, dated 2012).
